Like-named read-outs stand apart in the source and are kept apart here.
Test system: MM.1S cells
Experiment: In vitro cytotoxic potency in MM.1S cell viability assay (CellTiter-Glo)
Format: cell-based, human
Details: 72 h, read-out: MM.1S IC50
Protocol: Methods: MM.1S Cells were cultivated in RPMI medium 1640 (IX) supplemented with 10 μg/μL penicillin/streptomycin, 10% heat inactivated FBS, 0.1 mM Sodium Pyruvate, 1×MEM NEAA (ThermoFisher) and 1 mM HEPES. Cells were grown to reach log phase before being exposed to the test compounds.
(§1) Test compounds (Example compounds 1 to 36, 38 to 41 and 45 to 48) and comparative compounds (bendamustine, busulfan, melphalan, chlorambucil and 4-hydroperoxy cyclophosphamide) were dissolved in 100% DMSO and added to a 384 assay plate. Additional DMSO was added to maintain the same final DMSO concentration (0.2%) in all wells. 25 μL cell suspension with a concentration of 100000 cells/mL was added to each well. The cells were cultured in a CO2 incubator at 37° C. for 72 h. Plates were equilibrated to room temperature for 30 minutes before adding 20 μL CellTiter-Glo® 2.0 (Promega) reagent to all wells. The plate was then allowed to stabilize for 20 minutes before recording the luminescence (emission filter 700 nm) in an Envision plate reader.
All cells were cultivated in RPMI medium 1640 (IX). All media was supplemented with 10 μg/μl penicillin/streptomycin, 10% heat inactivated FBS, 0.1 mM Sodium Pyruvate, 1×MEM NEAA (ThermoFisher) and 1 mM HEPES. The DERL-2 cells had higher FBS (20%) and 40 ng/mL IL-2 was added. hPBMCs were thawed and allowed to acclimatise overnight and then stimulated with 10 μg/mL PHA-M and 40 ng/mL IL-2 for 4 hours before being exposed to test compounds. All cells, except for hPBMCs, were grown to reach log phase before being exposed to the test compounds.
as §1, with “compounds” for “compounds (Example compounds 1 to 36, 38 to 41 and 45 to 48) and comparative compounds (bendamustine, busulfan, melphalan, chlorambucil and 4-hydroperoxy cyclophosphamide)”, “(Em” for “(emission”

Structure (SMILES)	IC50 (Homo sapiens, MM1.S) [nM]	further results
O=P1(N(CCCl)CCCl)NC(OO)CCO1 (centres unmarked) [4-hydroperoxy cyclophosphamide, reference compound]	–	IC50 (CellTiter-Glo 2.0): 7300 nM
CS(=O)(=O)OCCCCOS(C)(=O)=O [Busulfan, busulfan, reference compound]	–	IC50 (Homo sapiens, MM1.S, CellTiter-Glo 2.0): 180000 nM
O=C(O)CCCc1ccc(N(CCCl)CCCl)cc1 [Chlorambucil, chlorambucil, reference compound]	6870	–
CCOC(=O)[C@@H](NC(=O)[C@@H](N)CCc1nc2cc(N(CCCl)CCCl)ccc2n1C)C(C)C [Example 3, Ethyl (2S)-2-[[(2S)-2-amino-4-[5-[bis(2-chloroethyl)amino]-1-methyl-benzimidazol-2-yl]butanoyl]amino]-3-methyl-butanoate]	6.8	–
CCOC(=O)[C@H](CC(C)C)NC(=O)[C@@H](N)Cc1nc2cc(N(CCCl)CCCl)ccc2n1C [Example 4, Ethyl (2S)-2-[[(2S)-2-amino-3-[5-[bis(2-chloroethyl)amino]-1-methyl-benzimidazol-2-yl]propanoyl]amino]-4-methyl-pentanoate]	6.6	–
CCOC(=O)[C@H](Cc1ccc(F)cc1)NC(=O)[C@@H](N)Cc1nc2cc(N(CCCl)CCCl)ccc2n1C [Example 5, Ethyl (2S)-2-[[(2S)-2-amino-3-[5-[bis(2-chloroethyl)amino]-1-methyl-benzimidazol-2-yl]propanoyl]amino]-3-(4-fluorophenyl)propanoate]	22.6	–
CCOC(=O)[C@@H](NC(=O)[C@@H](N)Cc1nc2cc(N(CCCl)CCCl)ccc2n1C)C(C)C [Example 6, Ethyl (2S)-2-[[(2S)-2-amino-3-[5-[bis(2-chloroethyl)amino]-1-methyl-benzimidazol-2-yl]propanoyl]amino]-3-methyl-butanoate]	98.7	–
CCOC(=O)[C@H](CCc1nc2cc(N(CCCl)CCCl)ccc2n1C)NC(=O)[C@@H](N)CC(C)C [Example 7, Ethyl (2S)-2-[[(2S)-2-amino-4-methyl-pentanoyl]amino]-4-[5-[bis(2-chloroethyl)amino]-1-methyl-benzimidazol-2-yl]butanoate]	22.9	–
CCOC(=O)[C@H](CCc1nc2cc(N(CCCl)CCCl)ccc2n1C)NC(=O)[C@@H](N)Cc1ccc(F)cc1 [Example 8, Ethyl (2S)-2-[[(2S)-2-amino-3-(4-fluorophenyl)propanoyl]amino]-4-[5-[bis(2-chloroethyl)amino]-1-methyl-benzimidazol-2-yl]butanoate]	14.4	–
CCOC(=O)[C@H](CCc1nc2cc(N(CCCl)CCCl)ccc2n1C)NC(=O)[C@@H](N)C(C)C [Example 9, Ethyl (2S)-2-[[(2S)-2-amino-3-methyl-butanoyl]amino]-4-[5-[bis(2-chloroethyl)amino]-1-methyl-benzimidazol-2-yl]butanoate]	22.5	–
CCOC(=O)[C@H](Cc1nc2cc(N(CCCl)CCCl)ccc2n1C)NC(=O)[C@@H](N)Cc1ccc(F)cc1 [Example 11, Ethyl (2S)-2-[[(2S)-2-amino-3-(4-fluorophenyl)propanoyl]amino]-3-[5-[bis(2-chloroethyl)amino]-1-methyl-benzimidazol-2-yl]propanoate]	14.7	–
CCOC(=O)[C@H](Cc1nc2cc(N(CCCl)CCCl)ccc2n1C)NC(=O)[C@@H](N)C(C)C [Example 12, Ethyl (2S)-2-[[(2S)-2-amino-3-methyl-butanoyl]amino]-3-[5-[bis(2-chloroethyl)amino]-1-methyl-benzimidazol-2-yl]propanoate]	12.5	–
COC(=O)[C@H](CC(C)C)NC(=O)[C@@H](N)Cc1nc2cc(N(CCCl)CCCl)ccc2n1C [Example 14, Methyl (2S)-2-[[(2S)-2-amino-3-[5-[bis(2-chloroethyl)amino]-1-methyl-benzimidazol-2-yl]propanoyl]amino]-4-methyl-pentanoate]	8.7	–
CC(C)C[C@H](NC(=O)[C@@H](N)Cc1nc2cc(N(CCCl)CCCl)ccc2n1C)C(=O)OC(C)C [Example 15, Isopropyl (2S)-2-[[(2S)-2-amino-3-[5-[bis(2-chloroethyl)amino]-1-methyl-benzimidazol-2-yl]propanoyl]amino]-4-methyl-pentanoate]	9.1	–
CCOC(=O)[C@H](CCc1nc2cc(N(CCCl)CCCl)ccc2n1C)NC(=O)[C@H](CC(C)C)NC(=O)[C@@H](N)Cc1ccc(F)cc1 [Example 16, Ethyl (2S)-2-[[(2S)-2-[[(2S)-2-amino-3-(4-fluorophenyl)propanoyl]amino]-4-methyl-pentanoyl]amino]-4-[5-[bis(2-chloroethyl)amino]-1-methyl-benzimidazol-2-yl]butanoate]	25	–
Cn1c(C[C@H](N)C(=O)O)nc2cc(N(CCCl)CCCl)ccc21 [Example 17, (2S)-2-amino-3-[5-[bis(2-chloroethyl)amino]-1-methyl-benzimidazol-2-yl]propanoic acid]	40000	–
CC(C)[C@H](NC(=O)[C@@H](N)CCc1nc2cc(N(CCCl)CCCl)ccc2n1C)C(=O)O [Example 19, (2S)-2-[[(2S)-2-amino-4-[5-[bis(2-chloroethyl)amino]-1-methyl-benzimidazol-2-yl]butanoyl]amino]-3-methyl-butanoic acid]	4020	–
CCOC(=O)[C@H](CCc1nc2cc(N(CCCl)CCCl)ccc2n1C)NC(=O)[C@@H](CC(C)C)NC(=O)[C@@H](N)Cc1ccc(F)cc1 [Example 21, Ethyl (2S)-2-[[(2R)-2-[[(2S)-2-amino-3-(4-fluorophenyl)propanoyl]amino]-4-methyl-pentanoyl]amino]-4-[5-[bis(2-chloroethyl)amino]-1-methyl-benzimidazol-2-yl]butanoate]	26.6	–
CCOC(=O)[C@H](Cc1ccc(F)cc1)NC(=O)[C@H](CC(C)C)NC(=O)[C@@H](N)CCc1nc2cc(N(CCCl)CCCl)ccc2n1C [Example 22, Ethyl (2S)-2-[[(2S)-2-[[(2S)-2-amino-4-[5-[bis(2-chloroethyl)amino]-1-methyl-benzimidazol-2-yl]butanoyl]amino]-4-methyl-pentanoyl]amino]-3-(4-fluorophenyl)propanoate]	31.3	–
CCOC(=O)[C@H](CC(C)C)NC(=O)[C@H](CC(C)C)NC(=O)[C@@H](N)CCc1nc2cc(N(CCCl)CCCl)ccc2n1C [Example 23, Ethyl (2S)-2-[[(2S)-2-[[(2S)-2-amino-4-[5-[bis(2-chloroethyl)amino]-1-methyl-benzimidazol-2-yl]butanoyl]amino]-4-methyl-pentanoyl]amino]-4-methyl-pentanoate]	41.8	–
CC(C)C[C@H](NC(=O)[C@@H](N)CCc1nc2cc(N(CCCl)CCCl)ccc2n1C)C(=O)OCCN1CCOCC1 [Example 24, 2-Morpholinoethyl (2S)-2-[[(2S)-2-amino-4-[5-[bis(2-chloroethyl)amino]-1-methyl-benzimidazol-2-yl]butanoyl]amino]-4-methyl-pentanoate]	156	–
CC(C)C[C@H](NC(=O)[C@@H](N)CCc1nc2cc(N(CCCl)CCCl)ccc2n1C)C(=O)OCCOC(C)C [Example 25, 2-Isopropoxyethyl (2S)-2-[[(2S)-2-amino-4-[5-[bis(2-chloroethyl)amino]-1-methyl-benzimidazol-2-yl]butanoyl]amino]-4-methyl-pentanoate]	18.5	–
CC(C)C[C@H](NC(=O)[C@@H](N)CCc1nc2cc(N(CCCl)CCCl)ccc2n1C)C(=O)OC(C)C [Example 26, Isopropyl (2S)-2-[[(2S)-2-amino-4-[5-[bis(2-chloroethyl)amino]-1-methyl-benzimidazol-2-yl]butanoyl]amino]-4-methyl-pentanoate]	6.8	–
COC(=O)[C@H](CC(C)C)NC(=O)[C@@H](N)CCc1nc2cc(N(CCCl)CCCl)ccc2n1C [Example 27, Methyl (2S)-2-[[(2S)-2-amino-4-[5-[bis(2-chloroethyl)amino]-1-methyl-benzimidazol-2-yl]butanoyl]amino]-4-methyl-pentanoate]	8.2	–
CC(C)C[C@H](NC(=O)[C@@H](N)CCc1nc2cc(N(CCCl)CCCl)ccc2n1C)C(=O)OCCCN(C)C [Example 28, 3-(Dimethylamino)propyl (2S)-2-[[(2S)-2-amino-4-[5-[bis(2-chloroethyl)amino]-1-methyl-benzimidazol-2-yl]butanoyl]amino]-4-methyl-pentanoate]	352	–
COCC(C)OC(=O)[C@H](CC(C)C)NC(=O)[C@@H](N)CCc1nc2cc(N(CCCl)CCCl)ccc2n1C (stereo partly drawn) [Example 29, (2-Methoxy-1-methyl-ethyl) (2S)-2-[[(2S)-2-amino-4-[5-[bis(2-chloroethyl)amino]-1-methyl-benzimidazol-2-yl]butanoyl]amino]-4-methyl-pentanoate]	–	IC50 (CellTiter-Glo 2.0): 1.4 nM
